This is an account of results in patent US20240398828A1, “HETERO-ATOM CONTAINING COMPOUNDS AND USES THEREOF” (Kumquat Biosciences Inc., priority 2021, published 2024).

Assay [1] addresses T1, PTPN1 (i.e., PTP1B) (Homo sapiens, UniProt P18031).
T1 sequence (P18031 1-435): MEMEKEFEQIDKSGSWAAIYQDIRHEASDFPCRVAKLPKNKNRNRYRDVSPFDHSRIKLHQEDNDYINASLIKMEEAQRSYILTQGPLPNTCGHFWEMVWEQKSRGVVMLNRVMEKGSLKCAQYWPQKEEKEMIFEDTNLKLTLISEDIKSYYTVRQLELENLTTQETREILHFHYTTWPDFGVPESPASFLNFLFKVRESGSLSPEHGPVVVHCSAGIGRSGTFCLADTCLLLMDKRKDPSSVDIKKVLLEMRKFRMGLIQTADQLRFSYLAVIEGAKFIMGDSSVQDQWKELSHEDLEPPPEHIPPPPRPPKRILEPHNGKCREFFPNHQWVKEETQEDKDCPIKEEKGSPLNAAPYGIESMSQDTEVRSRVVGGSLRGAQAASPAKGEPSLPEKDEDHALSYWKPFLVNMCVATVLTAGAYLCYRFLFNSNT
The assay can be described thus: Phosphatase activity assay (DiFMUP substrate), PTP1B. In kind it is biochemical. To be noted: compounds binned ≤1 uM or >1 uM. An outline of the steps:
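Read-out is continuous fluorescence of DiFMU (360 nm excitation, 450 nm emission) over about 15-30 minutes, with DiFMUP substrate at the enzyme's independently determined Km (PTPN2 approx. 45 μM final). Buffer: 50 mM HEPES pH 7.5, 150 mM NaCl, 0.5 mM EDTA, 1 mM DTT, 0.001% Tween-20, room temperature; initial rates versus 10-point dilution fitted for IC50, at least duplicate.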

In assay [2] the target is T2, PTPN2 (i.e., TC-PTP) (Homo sapiens, UniProt P17706).
T2 sequence (P17706 1-415): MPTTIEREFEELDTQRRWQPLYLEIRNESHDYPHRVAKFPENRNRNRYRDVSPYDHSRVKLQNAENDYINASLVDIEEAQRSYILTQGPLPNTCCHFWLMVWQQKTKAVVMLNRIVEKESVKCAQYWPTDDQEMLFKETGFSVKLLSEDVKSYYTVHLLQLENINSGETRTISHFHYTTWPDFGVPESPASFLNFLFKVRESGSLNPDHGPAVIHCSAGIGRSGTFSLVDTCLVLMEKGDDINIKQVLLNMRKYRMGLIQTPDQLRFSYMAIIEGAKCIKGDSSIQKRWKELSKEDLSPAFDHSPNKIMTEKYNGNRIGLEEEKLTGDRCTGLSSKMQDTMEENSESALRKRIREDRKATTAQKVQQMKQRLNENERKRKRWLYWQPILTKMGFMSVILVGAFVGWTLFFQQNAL
The experiment in a line: Phosphatase activity assay (DiFMUP substrate), PTPN2. Type of assay: biochemical. The note with it: compounds binned ≤1 uM or >1 uM. The procedure, abridged:
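Enzyme (e.g. PTPN2 0.025 ng/ul) mixed about 2 min with compound at 10 serial concentrations in 50 mM HEPES pH 7.5, 150 mM NaCl, 0.5 mM EDTA, 1 mM DTT, 0.001% Tween-20 at room temperature. DiFMUP added at each enzyme's Km (about 45 μM for PTPN2). DiFMU fluorescence (ex 360/em 450 nm) followed 15-30 min; IC50 from 4-parameter fit of rates.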

As usually defined, the pIC50 is the negative decadic logarithm of the IC50, by convention in mol/L.

pIC50: −log10 of the molar value.

Regarding `O=C1CN(c2c(O)ccc(-c3cnn(C4CCC(O)CC4)c3)c2F)S(=O)(=O)N1` (centres unmarked) [Compound 408, 5-(2-fluoro-6-hydroxy-3-(1-(4-hydroxycyclohexyl)-1H-pyrazol-4-yl)phenyl)-1,2,5-thiadiazolidin-3-one 1,1-dioxide], the pIC50 in assay [1] and in assay [2] was no less than 6.00 each time.

As for `O=C1CN(c2c(O)ccc(C3=CCNC3)c2F)S(=O)(=O)N1` [Compound 489, 5-(3-(2,5-dihydro-1H-pyrrol-3-yl)-2-fluoro-6-hydroxyphenyl)-1,2,5-thiadiazolidin-3-one 1,1-dioxide], the pIC50 in assay [1] and in assay [2] was no less than 6.00 in each case.

In the case of `O=C1CN(c2c(O)ccc(-c3ccc(NS(=O)(=O)C4CC4)cn3)c2F)S(=O)(=O)N1` [Compound 261, N-(6-(3-(1,1-dioxido-4-oxo-1,2,5-thiadiazolidin-2-yl)-2-fluoro-4-hydroxyphenyl)pyridin-3-yl)cyclopropanesulfonamide], the pIC50 in assay [1] and in assay [2] was no less than 6.00 throughout.

In the case of `O=C1C=C(c2c(O)ccc(-c3cn(C4CC4)cn3)c2F)S(=O)(=O)N1` [Compound 244, 5-(3-(1-cyclopropyl-1H-imidazol-4-yl)-2-fluoro-6-hydroxyphenyl)isothiazol-3(2H)-one 1,1-dioxide], the pIC50 in assay [1] and in assay [2] was no less than 6.00 each time.

With `N#CC1(c2cc(-c3ccc(O)c(N4CC(=O)NS4(=O)=O)c3F)[nH]n2)CC1` [Compound 441, 1-(5-(3-(1,1-dioxido-4-oxo-1,2,5-thiadiazolidin-2-yl)-2-fluoro-4-hydroxyphenyl)-1H-pyrazol-3-yl)cyclopropane-1-carbonitrile], the pIC50 in assay [1] and in assay [2] was no less than 6.00 each time.

Take `N#Cc1ccc(Cn2cc(-c3ccc(O)c(N4CC(=O)NS4(=O)=O)c3F)cn2)cc1` [Compound 224, 4-((4-(3-(1,1-dioxido-4-oxo-1,2,5-thiadiazolidin-2-yl)-2-fluoro-4-hydroxyphenyl)-1H-pyrazol-1-yl)methyl)benzonitrile]: the pIC50 in assay [1] and in assay [2] was no less than 6.00 in each case.

Regarding `O=C1CN(c2c(O)ccc(C3=CCN(C4CC4)C3)c2F)S(=O)(=O)N1` [Compound 296, 5-(3-(1-cyclopropyl-2,5-dihydro-1H-pyrrol-3-yl)-2-fluoro-6-hydroxyphenyl)-1,2,5-thiadiazolidin-3-one 1,1-dioxide], the negative logarithm of the IC50 (pIC50) in assay [1] and in assay [2] was no less than 6.00 each time.

In the case of `O=C1CN(c2c(O)ccc(-c3cc(C4CC4)n(CC4CCCN4)n3)c2F)S(=O)(=O)N1` (centres unmarked) [Compound 382, 5-(3-(5-cyclopropyl-1-(pyrrolidin-2-ylmethyl)-1H-pyrazol-3-yl)-2-fluoro-6-hydroxyphenyl)-1,2,5-thiadiazolidin-3-one 1,1-dioxide], the pIC50 in assay [1] and in assay [2] was no less than 6.00 in each case.

Take `CC(C)CCS(=O)(=O)N1CC=C(c2ccc(O)c(N3CC(=O)NS3(=O)=O)c2F)C1` [Compound 338, 5-(2-fluoro-6-hydroxy-3-(1-(isopentylsulfonyl)-2,5-dihydro-1H-pyrrol-3-yl)phenyl)-1,2,5-thiadiazolidin-3-one 1,1-dioxide]: the pIC50 in assay [1] and in assay [2] was no less than 6.00 in each case.

For `CC(=O)N(C)C1CCC=C(c2ccc(O)c(N3CC(=O)NS3(=O)=O)c2F)C1` (centres unmarked) [Compound 232, N-(3′-(1,1-dioxido-4-oxo-1,2,5-thiadiazolidin-2-yl)-2′-fluoro-4′-hydroxy-2,3,4,5-tetrahydro-[1,1′-biphenyl]-3-yl)-N-methylacetamide], the negative logarithm of the IC50 (pIC50) in assay [1] and in assay [2] was no less than 6.00 throughout.

On to `O=C1CN(c2c(O)ccc(-c3coc(-c4ccccc4)n3)c2F)S(=O)(=O)N1` [Compound 173, 5-(2-fluoro-6-hydroxy-3-(2-phenyloxazol-4-yl)phenyl)-1,2,5-thiadiazolidin-3-one 1,1-dioxide], for which the pIC50 in assay [1] and in assay [2] was no less than 6.00 in each case.

Regarding `O=C1CN(c2c(O)ccc(-c3c[nH]c(C4CC4)c3)c2F)S(=O)(=O)N1` [Compound 394, 5-(3-(5-cyclopropyl-1H-pyrrol-3-yl)-2-fluoro-6-hydroxyphenyl)-1,2,5-thiadiazolidin-3-one 1,1-dioxide], the pIC50 in assay [1] and in assay [2] was no less than 6.00 in each case.

On to `COc1cc(-c2ccc(O)c(N3CC(=O)NS3(=O)=O)c2F)ccn1` [Compound 107, 5-(2-fluoro-6-hydroxy-3-(2-methoxypyridin-4-yl)phenyl)-1,2,5-thiadiazolidin-3-one 1,1-dioxide], for which the negative-log IC50 (pIC50) in assay [1] and in assay [2] was no less than 6.00 in each case.

With `O=C1CN(c2c(O)ccc(C3=CCN(CC(F)(F)F)CC3)c2F)S(=O)(=O)N1` [Compound 393, 5-(2-fluoro-6-hydroxy-3-(1-(2,2,2-trifluoroethyl)-1,2,3,6-tetrahydropyridin-4-yl)phenyl)-1,2,5-thiadiazolidin-3-one 1,1-dioxide], the pIC50 in assay [1] and in assay [2] was no less than 6.00 each time.

For `Cn1cnc(-c2ccc(O)c(N3CC(=O)NS3(=O)=O)c2F)n1` [Compound 237, 5-(2-fluoro-6-hydroxy-3-(1-methyl-1H-1,2,4-triazol-3-yl)phenyl)-1,2,5-thiadiazolidin-3-one 1,1-dioxide], the pIC50 in assay [1] and in assay [2] was no less than 6.00 throughout.

Consider `O=C1CN(c2c(O)ccc(-c3cc(N4CC(c5ccccc5)C4)n[nH]3)c2F)S(=O)(=O)N1` [Compound 356, 5-(2-fluoro-6-hydroxy-3-(3-(3-phenylazetidin-1-yl)-1H-pyrazol-5-yl)phenyl)-1,2,5-thiadiazolidin-3-one 1,1-dioxide], for which the pIC50 in assay [1] and in assay [2] was no less than 6.00 throughout.

As to `O=C1CN(c2c(O)ccc(-c3cn(C4CCC4)cn3)c2F)S(=O)(=O)N1` [Compound 241, 5-(3-(1-cyclobutyl-1H-imidazol-4-yl)-2-fluoro-6-hydroxyphenyl)-1,2,5-thiadiazolidin-3-one 1,1-dioxide], the pIC50 in assay [1] and in assay [2] was no less than 6.00 throughout.

Take `O=C1CN(c2c(O)ccc(-c3cnn(Cc4ccc(Cl)cc4)c3)c2F)S(=O)(=O)N1` [Compound 189, 5-(3-(1-(4-chlorobenzyl)-1H-pyrazol-4-yl)-2-fluoro-6-hydroxyphenyl)-1,2,5-thiadiazolidin-3-one 1,1-dioxide]: the pIC50 in assay [1] and in assay [2] was no less than 6.00 throughout.

With `O=C1CN(c2c(O)ccc(-c3n[nH]c4ccccc34)c2F)S(=O)(=O)N1` [Compound 168, 5-(2-fluoro-6-hydroxy-3-(1H-indazol-3-yl)phenyl)-1,2,5-thiadiazolidin-3-one 1,1-dioxide], the pIC50 in assay [1] and in assay [2] was less than 6.00 in each case.

As to `O=C1CN(c2c(O)ccc(-c3ccc4[nH]ncc4c3)c2F)S(=O)(=O)N1` [Compound 114, 5-(2-fluoro-6-hydroxy-3-(1H-indazol-5-yl)phenyl)-1,2,5-thiadiazolidin-3-one 1,1-dioxide], the pIC50 in assay [1] and in assay [2] was no less than 6.00 in each case.

Consider `CC(C)CCc1cc(-c2ccc(O)c(N3CC(=O)NS3(=O)=O)c2F)nn1C` [Compound 380, 5-(2-fluoro-6-hydroxy-3-(5-isopentyl-1-methyl-1H-pyrazol-3-yl)phenyl)-1,2,5-thiadiazolidin-3-one 1,1-dioxide], for which the pIC50 in assay [1] and in assay [2] was no less than 6.00 throughout.

On to `O=C1CN(c2c(O)ccc(-c3cnc(C4CC4)[nH]3)c2F)S(=O)(=O)N1` [Compound 406, 5-(3-(2-cyclopropyl-1H-imidazol-5-yl)-2-fluoro-6-hydroxyphenyl)-1,2,5-thiadiazolidin-3-one 1,1-dioxide], for which the pIC50 in assay [1] and in assay [2] was no less than 6.00 each time.

For the molecule `O=C1CN(c2c(O)ccc(-c3cc(C4CC4)no3)c2F)S(=O)(=O)N1` [Compound 256, 5-(3-(3-cyclopropylisoxazol-5-yl)-2-fluoro-6-hydroxyphenyl)-1,2,5-thiadiazolidin-3-one 1,1-dioxide], the negative-log IC50 (pIC50) in assay [1] and in assay [2] was no less than 6.00 in each case.

For `CC(C)CCc1cnc(-c2ccc(O)c(N3CC(=O)NS3(=O)=O)c2F)[nH]1` [Compound 262, 5-(2-fluoro-6-hydroxy-3-(5-isopentyl-1H-imidazol-2-yl)phenyl)-1,2,5-thiadiazolidin-3-one 1,1-dioxide], the pIC50 in assay [1] and in assay [2] was no less than 6.00 in each case.

As to `O=C1CN(c2c(O)ccc(-c3cn(-c4ccc(F)cc4)cn3)c2F)S(=O)(=O)N1` [Compound 209, 5-(2-fluoro-3-(1-(4-fluorophenyl)-1H-imidazol-4-yl)-6-hydroxyphenyl)-1,2,5-thiadiazolidin-3-one 1,1-dioxide], the pIC50 in assay [1] and in assay [2] was no less than 6.00 throughout.
